Where “and” joins values, the source holds several entries; their conditions need not be identical. Equal entries are not always repeated. Entries after “also recorded” stand apart in the source; their conditions may differ.
How the values were obtained:
CRE E. coli = assay: PNA growth assay (optical density) on clinical isolate; format: cell-based, Escherichia coli; conditions: for growth inhibition: 10 μM PNA, optical density vs no treatment at 16 hours
Description: (§1) Bacterial Cell culture: The clinical isolates were obtained from the lab of Nancy Madinger at the University of Colorado Anschutz campus. Clinical isolates were grown in Cation Adjusted Mueller Hinton broth (CAMHB) (Becton, Dickinson and Company 212322) at 37° C. with 225 rpm shaking or on solid CAMHB with 1.5% agar at 37° C. Clinical isolates were maintained as freezer stocks in 90% CAMHB, 10% glycerol at −80° C. Freezer stocks were streaked out onto solid CAMHB and incubated for 16 h to produce single colonies prior to experiments. For each biological replicate, a single colony was picked from solid media and grown for 16 h in liquid CAMHB prior to experiments. Non-clinical isolates, such as E. coli MG1655 (ATCC700926) and Salmonella entorica serovar typhimurium SL1344, were cultured in liquid 2% lysogeny broth (LB) or on 2% LB with 1.5% agar for solid plates. S. typhimurium cultures were supplemented with 30 μg/mL streptomycin and SL1344 strains containing plasmids pFPV (SL1344-mCherry) or pRG1 modified with a lacIq promoter (SL1344-Holin) were supplemented with 100 μg/mL ampicillin. Freezer stocks were stored in 60% LB broth, 40% glycerol at −80° C. Freezer stocks were streaked out onto solid LB and incubated for 16 h to produce single colonies before experiments. For biological replicates, single colonies were started in liquid LB and grown for 16 hours prior to experiments. E. coli MG1655 PNA growth experiments were carried out in M9 media (1×M9 minimal media salts solution (MP Biomedicals), 2.0 mM MgSO4, and 0.1 mM CaCl2 in sterile water) with 0.4% glucose.
(§2) PNA growth assay: Biological replicates were diluted 1:10,000 into treatment condition in 384-well plates and measured for 24 h in a Tecan GENios at 562 nm with a bandwidth of 35 nm. Media absorbance blanks were subtracted from data prior to analysis. Normalized optical density (OD) data is shown normalized to the time point where the “no treatment” growth curves reached saturation phase which varied across biological replicates.

ESBL KPN = assay: as above; format: cell-based, Klebsiella pneumoniae
Description: as §1, §2

E. coli MG1655 = assay: Growth curves and CFU of lab strain treated with PNA; format: cell-based, Escherichia coli; conditions: 10 μM
Description: FIG. 7. Dose response of various PNA. Optical density of a 1:10,000 dilution of MG6155 from overnight liquid culture, treated with various concentrations of antisense inhibitors was measured for 3 biological replicates with error bars as standard deviations. Normalized growth was measured as the optical density at 22 hours normalized to no treatment. An asterisk (*) indicates a significant difference (p<0.05) as compared to no treatment for each inhibitor.
FIG. 8. Antisense Inhibitors targeting novel pathways can inhibit growth of E. coli. z. (A) Growth curves of E. coli MG1655 from a 1:10,000 dilution from an overnight culture, normalized to time t=0 with 10 μM of respective antisense inhibitor. […] (B) Colony forming units per milliliter of MG1655 E. coli for respective treatment as a function of time. The CFU/mL at t=0 represents the starting culture after a 1:100,000 dilution from overnight culture. […] Significance is measured as p<0.05.
as §1
PNA growth assay: Biological replicates were diluted 1:10,000 into treatment condition in 384-well plates and measured for 24 h in a Tecan GENios at 562 nm with a bandwidth of 35 nm. Media absorbance blanks were subtracted from data prior to analysis. […]

HeLa cells = assay: Cytotoxicity in HeLa cells (lactate dehydrogenase assay); format: cell-based, human; conditions: for lethality to human epithelial cells (in words): HeLa, range of concentrations
Description: FIG. 12. Cytotoxicity measurement of varying concentration of PNA in HeLa cells. HeLa cells were plated on tissue culture treated 96-well plates at 4,500 cells per well. Varying concentrations of α-lexA and α-nonsense were added exogenously after 24 hours of growth and incubated in growth conditions for 18 hours. Cytotoxicity was measured using a lactate dehydrogenase assay and absorbance read at 450 nm with a blank (growth media with lactate dehydrogenase assay) subtracted. […] Error bars are standard deviation.

[1] = tested on: 60 nucleotide single-stranded DNA fragments containing the complementation site; assay: Electrophoretic mobility shift assay (EMSA); format: binding; conditions: PNA 1 μM, DNA fragments 500 nM; complementary vs nonsense DNA
Description: FIG. 5. PNA binding to off-target start codons. (A) The set of potential PNA candidates identified from the Keio collection were screened against the entire E. coli MG1655 genome to identify the distribution of off-target alignments when allowing for zero base mismatches in the alignment (left) and one base mismatch (right). In the 0-basepair mismatch analysis, all chosen PNAs that were tested had no other start codon alignments within the genome, whereas in the one base mismatch alignment, the number of start codon alignments distribute across zero to five alignments. (B) Electrophoretic mobility shift assay (EMSA) depicting 60 nucleotide single-stranded DNA fragments containing the complementation site for their corresponding PNA. Nonsense DNA was a random 60 nucleotide single-stranded DNA sequence that contained no complementation sites for PNA binding. […] Bands corresponding to PNA+complementary DNA are shifted above the unbound DNA (red triangles). Corresponding PNA+nonsense DNA bands are seen in lanes 3 and 5, with lane 3 having slight cross-over bands coming from lane 2. All lanes are from the same gel.
Gel Shift Mobility Assay: Synthetic DNA oligonucleotides that are 57-60 nucleotides in length were incubated with their respective PNA binding site at 37° C. overnight. The concentration of the DNA fragments was held at 500 nM, while the PNA was always in excess at 1 μM. […]

α-lexA: 12-mer antisense PNA cGGAATGAAAGC (SEQ ID NO. 17) targeting lexA, conjugated to (KFF)3K cell penetrating peptide via AEEA-linker (antisense CGGAATGAAAGC; all peptide nucleic acid (PNA); (KFF)3K cell-penetrating peptide attached via AEEA linker)
growth inhibition (CRE E. coli): 51±8.1% | monotherapy effect (in words) (ESBL KPN; 10 μM): no or minimal growth inhibition | effect on growth (in words) (E. coli MG1655): complete suppression of cell growth | concentration up to which no significant difference in cytotoxicity to negative control was seen (HeLa cells; HeLa cells, 18 hours, lactate dehydrogenase assay, p>0.05): up to 40 μM | lethality to human epithelial cells (in words) (HeLa cells): not found to be lethal | binding specificity by EMSA (in words) [1]: showed specificity to their targets; also recorded: show binding specificity to their target

α-rpsD: 12-mer antisense PNA AGAAAATGGCAA (SEQ ID NO. 19) targeting rpsD, conjugated to (KFF)3K cell penetrating peptide via AEEA-linker (all peptide nucleic acid (PNA); (KFF)3K cell-penetrating peptide attached via AEEA linker)
monotherapy effect (in words) (CRE E. coli; 10 μM): effective in killing | growth inhibition (CRE E. coli): 99±0.4% and 99% | growth inhibition (ESBL KPN; 10 μM PNA, optical density vs no treatment at 16 hours): 82%±8.8 | effect on growth (in words) (E. coli MG1655): effective in killing; also recorded: complete suppression of cell growth | colony forming units per milliliter (E. coli MG1655; within 2 hours of treatment): 0 CFU/mL | lethality to human epithelial cells (in words) (HeLa cells): not found to be lethal | binding specificity by EMSA (in words) [1]: showed specificity to their targets; also recorded: show binding specificity to their target

From patent US20210087565A1, “ANTISENSE ANTIBIOTICS AND BACTERIAL SECRETION BASED DELIVERY SYSTEM TO ELIMINATE DRUG-RESISTANT BACTERIA” (priority 2018, published 2021)
